# Assay results reported in ChEMBL document CHEMBL4706731, “Semisynthetic Derivatives of the Verticillin Class of Natural Products through Acylation of the C11 Hydroxy Group” (ACS Med Chem Lett, 2021).
# Assays:
# Assay type in all cases: functional, cell-based
# MDA-MB-231 = assay: Cytotoxicity against human MDA-MB-231 cells assessed as inhibition of cell proliferation measured after 72 hrs by CellTiter 96 AQueous One Solution Cell Proliferation assay; details: MDA-MB-231, 72 h
# MDA-MB-435 = assay: Cytotoxicity against human MDA-MB-435 cells assessed as inhibition of cell proliferation measured after 72 hrs by CellTiter 96 AQueous One Solution Cell Proliferation assay; details: MDA-MB-435, 72 h
# OVCAR-3 = assay: Cytotoxicity against human OVCAR-3 cells assessed as inhibition of cell proliferation measured after 72 hrs by CellTiter 96 AQueous One Solution Cell Proliferation assay; details: OVCAR-3, 72 h
SMILES,IC50 (MDA-MB-231),IC50 (MDA-MB-435),IC50 (OVCAR-3)
CN1C(=O)[C@]23SS[C@@]1(C)C(=O)N2[C@H]1Nc2ccccc2[C@@]1([C@@]12c4ccccc4N[C@@H]1N1C(=O)[C@]4(C)SS[C@]1(C(=O)N4C)[C@H]2O)[C@@H]3O,23 nM,18 nM,36 nM
CC[C@@]12SS[C@]3(C(=O)N1C)[C@@H](O)[C@]1([C@@]45c6ccccc6N[C@@H]4N4C(=O)[C@]6(CC)SS[C@]4(C(=O)N6C)[C@H]5O)c4ccccc4N[C@@H]1N3C2=O,31 nM,44 nM,229 nM
CC[C@@]12SS[C@]3(C(=O)N1C)[C@@H](O)[C@]1([C@@]45c6ccccc6N[C@@H]4N4C(=O)[C@]6(CC)SS[C@]4(C(=O)N6C)[C@H]5OS(=O)(=O)c4ccc(F)cc4)c4ccccc4N[C@@H]1N3C2=O,49 nM,31 nM,79 nM
CN1C(=O)[C@]23SS[C@@]1(C)C(=O)N2[C@H]1Nc2ccccc2[C@@]1([C@@]12c4ccccc4N[C@@H]1N1C(=O)[C@]4(C)SS[C@]1(C(=O)N4C)[C@H]2OC(=O)CCC(=O)O)[C@@H]3O,12 nM,9 nM,33 nM
CC[C@@]12SS[C@]3(C(=O)N1C)[C@@H](O)[C@]1([C@@]45c6ccccc6N[C@@H]4N4C(=O)[C@]6(CC)SS[C@]4(C(=O)N6C)[C@H]5OC(=O)C4CC4)c4ccccc4N[C@@H]1N3C2=O,12 nM,24 nM,105 nM
CC[C@@]12SS[C@]3(C(=O)N1C)[C@@H](O)[C@]1([C@@]45c6ccccc6N[C@@H]4N4C(=O)[C@]6(CC)SS[C@]4(C(=O)N6C)[C@H]5OC(=O)C(C)(C)C)c4ccccc4N[C@@H]1N3C2=O,20 nM,21 nM,72 nM
CCCC(=O)O[C@H]1[C@]2([C@@]34c5ccccc5N[C@@H]3N3C(=O)[C@]5(CC)SS[C@]3(C(=O)N5C)[C@H]4O)c3ccccc3N[C@@H]2N2C(=O)[C@]3(CC)SS[C@]12C(=O)N3C,17 nM,19 nM,25 nM
CC[C@@]12SS[C@]3(C(=O)N1C)[C@@H](O)[C@]1([C@@]45c6ccccc6N[C@@H]4N4C(=O)[C@]6(CC)SS[C@]4(C(=O)N6C)[C@H]5OC(=O)CCC(=O)O)c4ccccc4N[C@@H]1N3C2=O,13 nM,21 nM,133 nM
CC[C@@]12SS[C@]3(C(=O)N1C)[C@@H](O)[C@]1([C@@]45c6ccccc6N[C@@H]4N4C(=O)[C@]6(CC)SS[C@]4(C(=O)N6C)[C@H]5OC(=O)N(C)C)c4ccccc4N[C@@H]1N3C2=O,12 nM,9 nM,19 nM
CC[C@@]12SS[C@]3(C(=O)N1C)[C@@H](O)[C@]1([C@@]45c6ccccc6N[C@@H]4N4C(=O)[C@]6(CC)SS[C@]4(C(=O)N6C)[C@H]5OC(C)=O)c4ccccc4N[C@@H]1N3C2=O,21 nM,41 nM,96 nM
CCOC(=O)O[C@H]1[C@]2([C@@]34c5ccccc5N[C@@H]3N3C(=O)[C@]5(CC)SS[C@]3(C(=O)N5C)[C@H]4O)c3ccccc3N[C@@H]2N2C(=O)[C@]3(CC)SS[C@]12C(=O)N3C,7 nM,11 nM,137 nM
CC[C@@]12SS[C@]3(C(=O)N1C)[C@@H](O)[C@]1([C@@]45c6ccccc6N[C@@H]4N4C(=O)[C@]6(CC)SS[C@]4(C(=O)N6C)[C@H]5OC(=O)NC)c4ccccc4N[C@@H]1N3C2=O,21 nM,22 nM,68 nM
CC(=O)O[C@H]1C(=O)[C@@]2(C)[C@H]([C@H](OC(=O)c3ccccc3)[C@]3(O)C[C@H](OC(=O)[C@H](O)[C@@H](NC(=O)c4ccccc4)c4ccccc4)C(C)=C1C3(C)C)[C@]1(OC(C)=O)CO[C@@H]1C[C@@H]2O [PACLITAXEL],0.6 nM,0.3 nM,1.8 nM
